Experimental data from PubChem BioAssay AID1963968 (Molecular Pharmacology Branch, DTP, NCI, 2024).

Tested on: 945468-187-T-J3-PDC spheroids with HUVEC/MSC, viability
Assay: Anticancer human tumor 945468-187-T-J3-PDC patient-derived rectal carcinoma cell line growth inhibition [PI3K]
Conditions: for IC50: curve of first compound; for viability, T/C: stronger effect = lower value
From the text: Combinatorial screen of targeted agents with the PI3K inhibitors inavolisib, alpelisib, duvelisib, and copanlisib in multi-cell type tumor spheroids
A high-throughput screen of multi-cell type tumor spheroids was designed to identify active combinations of targeted small molecules and PI3K pathway inhibitors. Complex spheroids include a stromal component modeled by human endothelial cells (HUVEC) and fibroblasts modeled by human mesenchymal stem cells (MSCs). The concentration ranges selected for each drug and investigational agent were based upon clinically achievable concentrations if the clinical Cmax of the agent was known.
Compounds. The drugs and investigational agents: inavolisib (NSC800729), alpelisib (NSC765974), duvelisib (NSC772469), copanlisib (NSC816437), ipatasertib (NSC767898), afuresertib (NSC778305), talazoparib (NSC767125), sapanisertib (NSC764658), selumetinib (NSC741078), tovorafenib (DAY101, NSC766906), vemurafenib (NSC761431), ravoxertinib (NSC781343), sotorasib (NSC818433), MRTX1133 (NSC 836407), abemaciclib (NSC 768073), palbociclib (NSC758247), venetoclax (NSC 766270), SY5609 (NSC837396), enzalutamide (NSC755605), and darolutamide (NSC825331), were obtained from the National Cancer Institute (NCI) Developmental Therapeutics Program Chemical Repository. The FDA-approved anticancer drug set is available from the NCI Developmental Therapeutics Program. […] The stock solutions were prepared in dimethyl sulfoxide (DMSO, Sigma-Aldrich, St. Louis, MO, cat. D2650) at 800-fold the tested concentration and stored at -70 degrees C prior to their use. All drugs and investigational agents were tested over a range starting from a high concentration at or near the clinical Cmax and decreasing in half-log increments. If the clinical Cmax for an agent had not been determined, the highest concentration tested was 10 microM.
Cell Culture. All cells were maintained in an incubator at 37 degrees C and 5% CO2 with 95% humidity. The PDC lines were cultured according to standard operating procedures established by the NCI PDMR (https://pdmr.cancer.gov/sops/default.htm). All PDCs were thawed and cultured in Matrigel-coated flasks prepared with a working solution of 1X Ham's F-12 nutrient mix, without supplementation (Invitrogen, Waltham, MA, cat. 11765054), 100 U/mL penicillin-streptomycin (Invitrogen, cat. 15140122), and 2.5% Matrigel (Corning Inc., Corning, NY, cat. 354248) for the first three passages. The 354836-022-R-J1-PDC, 475296-252-R-J1-PDC, and 997726-040-R-J2-PDC lines were cultured in 6A media, which includes advanced DMEM/F-12 (Thermo Fisher Scientific, cat. 12634028), 10 mM HEPES (Thermo Fisher Scientific, cat. 15630080), 1X GlutaMAX supplement (Thermo Fisher Scientific, cat. 35050061), 0.1 mg/mL primocin (InvivoGen, San Diego, CA, cat. ant-pm-2), 10% defined fetal bovine serum, heat inactivated (HyClone Laboratories Inc., Logan, UT, cat. SH30070.03HI), 50% L-WRN conditioned media (ATCC, cat. CRL-3276), 1.25 mM N-Acetyl-L-cysteine (Sigma-Aldrich, cat. A9165), 10 mM nicotinamide (Sigma-Aldrich, cat. N0636), 1X B-27 supplement (Thermo Fisher Scientific, cat. 17504044), 1X N-2 supplement (Thermo Fisher Scientific, cat. 17502048), and 10 microM Y-27632 dihydrochloride (Tocris Bioscience, Bristol, United Kingdom, cat. 1254). The 624824-186-R-J2-PDC line was cultured in 6C/Colon 1B media, which includes all 6A media components plus 50 ng/mL human EGF recombinant protein (Thermo Fisher Scientific, cat. PHG0311). […]

[1] = second compound 0.00316 µM, first compound 0.0316 µM
[2] = second compound 0.00316 µM, first compound 0.1 µM
[3] = second compound 0.00316 µM, first compound 0.316 µM
[4] = second compound 0.00316 µM, first compound 1 µM
[5] = second compound 0.00316 µM, first compound 3.16 µM
[6] = second compound 0.00316 µM, first compound 10 µM
[7] = second compound 0.01 µM, first compound 0.0316 µM
[8] = second compound 0.01 µM, first compound 0.1 µM
[9] = second compound 0.01 µM, first compound 0.316 µM
[10] = second compound 0.01 µM, first compound 1 µM
[11] = second compound 0.01 µM, first compound 3.16 µM
[12] = second compound 0.01 µM, first compound 10 µM
[13] = second compound 0.0316 µM, first compound 0.0316 µM
[14] = second compound 0.0316 µM, first compound 0.1 µM
[15] = second compound 0.0316 µM, first compound 0.316 µM
[16] = second compound 0.0316 µM, first compound 1 µM
[17] = second compound 0.0316 µM, first compound 3.16 µM
[18] = second compound 0.0316 µM, first compound 10 µM
[19] = second compound 0.1 µM, first compound 0.0316 µM
[20] = second compound 0.1 µM, first compound 0.1 µM
[21] = second compound 0.1 µM, first compound 0.316 µM
[22] = second compound 0.1 µM, first compound 1 µM
[23] = second compound 0.1 µM, first compound 3.16 µM
[24] = second compound 0.1 µM, first compound 10 µM
[25] = second compound 0.316 µM, first compound 0.0316 µM
[26] = second compound 0.316 µM, first compound 0.1 µM
[27] = second compound 0.316 µM, first compound 0.316 µM
[28] = second compound 0.316 µM, first compound 1 µM
[29] = second compound 0.316 µM, first compound 3.16 µM
[30] = second compound 0.316 µM, first compound 10 µM
[31] = second compound 1 µM, first compound 0.0316 µM
[32] = second compound 1 µM, first compound 0.1 µM
[33] = second compound 1 µM, first compound 0.316 µM
[34] = second compound 1 µM, first compound 1 µM
[35] = second compound 1 µM, first compound 3.16 µM
[36] = second compound 1 µM, first compound 10 µM
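Also: spheroids exposed to agents for 7 days before viability read.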
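For viability, T/C in this document: 100% = DMSO vehicle control viability.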

SMILES: C#Cc1c(F)ccc2cc(O)cc(-c3ncc4c(N5CC6CCC(C5)N6)nc(OCC56CCCN5CC(F)C6)nc4c3F)c12 (stereo unspecified) + CC(Nc1ccc2c(c1)OCCn1cc(N3C(=O)OCC3C(F)F)nc1-2)C(N)=O
- IC50 (second compound 0.00316 µM): > 10 µM
- IC50 (second compound 0.01 µM): > 10 µM
- IC50 (second compound 0.0316 µM): > 10 µM
- IC50 (second compound 0.1 µM): > 10 µM
- IC50 (second compound 0.316 µM): > 10 µM
- IC50 (second compound 1 µM): 2.76 µM
- viability, T/C [1]: 94%
- viability, T/C [2]: 103%
- viability, T/C [3]: 94%
- viability, T/C [4]: 114%
- viability, T/C [5]: 120%
- viability, T/C [6]: 113%
- viability, T/C [7]: 94.1%
- viability, T/C [8]: 100%
- viability, T/C [9]: 94.6%
- viability, T/C [10]: 115%
- viability, T/C [11]: 138%
- viability, T/C [12]: 102%
- viability, T/C [13]: 100%
- viability, T/C [14]: 104%
- viability, T/C [15]: 99.8%
- viability, T/C [16]: 118%
- viability, T/C [17]: 115%
- viability, T/C [18]: 105%
- viability, T/C [19]: 122%
- viability, T/C [20]: 112%
- viability, T/C [21]: 97%
- viability, T/C [22]: 117%
- viability, T/C [23]: 115%
- viability, T/C [24]: 103%
- viability, T/C [25]: 111%
- viability, T/C [26]: 99.6%
- viability, T/C [27]: 91.3%
- viability, T/C [28]: 106%
- viability, T/C [29]: 91%
- viability, T/C [30]: 56.1%
- viability, T/C [31]: 76.2%
- viability, T/C [32]: 73.2%
- viability, T/C [33]: 64.9%
- viability, T/C [34]: 70.2%
- viability, T/C [35]: 47.3%
- viability, T/C [36]: 29%

SMILES: CC(Cn1ccc(-c2ccc(C#N)c(Cl)c2)n1)NC(=O)c1cc(C(C)O)[nH]n1 (stereo unspecified) + CC(Nc1ccc2c(c1)OCCn1cc(N3C(=O)OCC3C(F)F)nc1-2)C(N)=O
- IC50 (second compound 0.00316 µM): > 10 µM
- IC50 (second compound 0.01 µM): > 10 µM
- IC50 (second compound 0.0316 µM): > 10 µM
- IC50 (second compound 0.1 µM): > 10 µM
- IC50 (second compound 0.316 µM): > 10 µM
- IC50 (second compound 1 µM): > 10 µM
- viability, T/C [1]: 95.2%
- viability, T/C [2]: 99.4%
- viability, T/C [3]: 106%
- viability, T/C [4]: 112%
- viability, T/C [5]: 114%
- viability, T/C [6]: 99.6%
- viability, T/C [7]: 111%
- viability, T/C [8]: 104%
- viability, T/C [9]: 93.6%
- viability, T/C [10]: 111%
- viability, T/C [11]: 114%
- viability, T/C [12]: 106%
- viability, T/C [13]: 115%
- viability, T/C [14]: 107%
- viability, T/C [15]: 101%
- viability, T/C [16]: 111%
- viability, T/C [17]: 109%
- viability, T/C [18]: 107%
- viability, T/C [19]: 109%
- viability, T/C [20]: 115%
- viability, T/C [21]: 115%
- viability, T/C [22]: 114%
- viability, T/C [23]: 107%
- viability, T/C [24]: 99.1%
- viability, T/C [25]: 107%
- viability, T/C [26]: 107%
- viability, T/C [27]: 96.7%
- viability, T/C [28]: 115%
- viability, T/C [29]: 108%
- viability, T/C [30]: 102%
- viability, T/C [31]: 80.5%
- viability, T/C [32]: 68.6%
- viability, T/C [33]: 75.4%
- viability, T/C [34]: 71.2%
- viability, T/C [35]: 74.8%
- viability, T/C [36]: 71.1%

SMILES: CC1(C)CCC(Nc2ncc(C(F)(F)F)c(-c3c[nH]c4c(P(C)(C)=O)c(C#N)ccc34)n2)CN1 (stereo unspecified) + CC(Nc1ccc2c(c1)OCCn1cc(N3C(=O)OCC3C(F)F)nc1-2)C(N)=O
- IC50 (second compound 0.00316 µM): 5.65 µM
- IC50 (second compound 0.01 µM): 5.69 µM
- IC50 (second compound 0.0316 µM): 5.24 µM
- IC50 (second compound 0.1 µM): 5.3 µM
- IC50 (second compound 0.316 µM): 3.77 µM
- IC50 (second compound 1 µM): 1.99 µM
- viability, T/C [1]: 83.5%
- viability, T/C [2]: 85.8%
- viability, T/C [3]: 69.1%
- viability, T/C [4]: 85.8%
- viability, T/C [5]: 86.1%
- viability, T/C [6]: 18.5%
- viability, T/C [7]: 83.8%
- viability, T/C [8]: 83.5%
- viability, T/C [9]: 72.3%
- viability, T/C [10]: 94.7%
- viability, T/C [11]: 96.6%
- viability, T/C [12]: 15.1%
- viability, T/C [13]: 82.9%
- viability, T/C [14]: 77.4%
- viability, T/C [15]: 71.2%
- viability, T/C [16]: 79.8%
- viability, T/C [17]: 87.3%
- viability, T/C [18]: 11.8%
- viability, T/C [19]: 86.1%
- viability, T/C [20]: 88.6%
- viability, T/C [21]: 70.8%
- viability, T/C [22]: 77.6%
- viability, T/C [23]: 82%
- viability, T/C [24]: 11.9%
- viability, T/C [25]: 82.4%
- viability, T/C [26]: 79.2%
- viability, T/C [27]: 80.7%
- viability, T/C [28]: 61.4%
- viability, T/C [29]: 63.2%
- viability, T/C [30]: 8.03%
- viability, T/C [31]: 80.7%
- viability, T/C [32]: 62.4%
- viability, T/C [33]: 62%
- viability, T/C [34]: 51.6%
- viability, T/C [35]: 52.2%
- viability, T/C [36]: 4.39%
